Entries after “also recorded” stand apart in the source; their conditions may differ.
System: isolated cardiomyocytes from SHAM and HF mice
Experiment: Cytosolic Ca2+ transients and cell shortening in isolated cardiomyocytes
Type: cell-based, mouse
Settings: for cardiomyocyte fractional shortening (FS): 15 min ghrelin exposure, 100 nM, sham and post-MI HF mice; for cardiomyocyte Ca2+ transients (amplitude): SHAM and HF mice, vs placebo
Text: Twelve-week old C57BL6 mice were anesthetized with gas mixture of oxygen and isoflurane (2-3%). Myocardial infarction (MI) was induced in mice by permanent ligation of the left coronary artery, as previously described (Perrino et al., 2013). Briefly, mice underwent thoracotomy and subsequent left coronary ligation; ˜80% survived during the follow-up period (4-6 weeks). SHAM-operated animals underwent the same procedure without coronary artery ligation (SHAM). At study termination, after sedation, mice were euthanized through cervical dislocation.
After euthanasia, single cardiomyocytes were isolated from the left and right ventricles (mouse hearts are dominated by left ventricles) and atria were excluded, following the protocols developed by the Alliance for Cellular Signalling (AfCS Procedure Protocol ID PP00000 125) as previously described (Pironti et al., 2016).
Mouse cardiomyocytes were incubated with a cell permeable form of fluorescent indicators Fluo-3 AM followed by washing for >5 min as previously described (Andersson et al., 2011). Cardiomyocytes were plated on laminin coated glass bottom dishes. The dishes were placed in a custom built perfusion/stimulation chamber and continuously perfused with O2/CO2 (95/5%) bubbled Tyrode solution with the following composition (in mM): NaCl 121, KCl 5.0, CaCl2 1.8, MgCl2 0.5, NaH2PO4 0.4, NaHCO3 24, EDTA 0.1, glucose 5.5. The cardiomyocytes were stimulated to contract using an electrical field between two platinum electrodes attached to the perfusion/stimulation chamber. […] Fluorescence was measured using a confocal microscope Bio-Rad MRC 1024 unit attached to a Nikon Diaphot inverted microscope (40-60×oil immersion lenses). Confocal images were analyzed off line using ImageJ (National Institutes of Health; available at http://rsb.info.nih.gov/ij). Line scan confocal images were obtained from paced cardiomyocytes with the line scan running along the long axis of the cell. Changes in the emitted fluorescence, representing changes in free cytoplasmic Ca^2+, were quantified. The amplitude of Ca^2+ transients was measured as the change in the fluo-3 fluorescence signal (F) divided by the fluorescence immediately before a stimulation pulse given under control conditions (FO). Ca^2+ transient decay time constant (Tau) was quantified by fitting the decay to an exponential decay function in the GraphPad Prism software (La Jolla, Ca, USA). Fractional cell shortening was calculated from the line scan images as the fractional change in the cell length at rest and during maximal contraction.
The myocytes were superfused with physiological buffer (Tyrode solution) or for the pharmacological experiments Tyrode+Ghrelin (100 nM) or D-Lys 3 (D-Lys 3 GHS-R1a antagonist 3 μM). All cells were perfused for 15 min with respective solution before measurements, except in some experiments where D-Lys 3 (3 μM) was introduced in perfusion system 10 minutes before adding Ghrelin. All experiments were performed at room temperature (˜24° C.).
The myocytes were superfused with physiological buffer (Tyrode solution) with or without Ghrelin (Bachem, Bubendorf, Switzerland) (100 nM). All cardiomyocytes were superfused for 15 min with respective solution before measurements. An antagonist against the ghrelin receptor GHS-r1a (D-Lys 3; 3 μM), was used in some experiments. In those experiments, D-Lys 3 was introduced in superfusion system 10 minutes before adding Ghrelin.

Question: `CCCCCCCC(=O)OC[C@H](NC(=O)[C@H](CO)NC(=O)CN)C(=O)N[C@@H](Cc1ccccc1)C(=O)N[C@@H](CC(C)C)C(=O)N[C@@H](CO)C(=O)N1CCC[C@H]1C(=O)N[C@@H](CCC(=O)O)C(=O)N[C@@H](Cc1cnc[nH]1)C(=O)N[C@@H](CCC(N)=O)C(=O)N[C@@H](CCCNC(=N)N)C(=O)N[C@H](C(=O)N[C@@H](CCC(N)=O)C(=O)N[C@@H](CCC(N)=O)C(=O)N[C@@H](CCCNC(=N)N)C(=O)N[C@@H](CCCCN)C(=O)N[C@@H](CCC(=O)O)C(=O)N[C@@H](CO)C(=O)N[C@@H](CCCCN)C(=O)N[C@@H](CCCCN)C(=O)N1CCC[C@H]1C(=O)N1CCC[C@H]1C(=O)N[C@@H](C)C(=O)N[C@@H](CCCCN)C(=O)N[C@@H](CC(C)C)C(=O)N[C@@H](CCC(N)=O)C(=O)N1CCC[C@H]1C(=O)N[C@@H](CCCNC(=N)N)C(=O)O)C(C)C` [Ghrelin] was tested. Which “kinetics of Ca2+ transients (ROI and Tau)” value did it give?
Answer: Its value is “did not affect”.

Question: What about the “cardiomyocyte fractional shortening (FS)” value of the same molecule?
Answer: The value was “increases contractility”.

Question: What about the “cardiomyocyte fractional shortening (FS)” value (listed as ghrelin) of the same molecule?
Answer: Its value is “increased compared to placebo”.

Question: What about the “cardiomyocyte Ca2+ transients (amplitude)” value of the same molecule?
Answer: The value was “did not differ”.

Question: And the “cardiomyocyte Ca2+ transients (amplitude)” value (listed as ghrelin)?
Answer: Its value is “not different; also recorded: no difference”.

Source: patent US20230346889A9, “TREATMENT OF ACUTE HEART FAILURE” (AnaCardio R&D AB, priority 2019, published 2023)
